# Test results taken from patent publication US9309225B2, “N-((1-benzyl-1H-1,2,3-triazol-4-yl)methyl)arylamide compounds as potential anticancer agents and a process for the preparation thereof” (COUNCIL OF SCIENTIFIC & INDUSTRIAL RESEARCH, priority 2013, dated 2016).
# Assays:
# [1] = tested on: SNB-75; assay: NCI sixty human tumor cell line screen, CNS panel; format: cell-based; conditions: SNB-75, CNS, NCI protocol
# Description: (§1) The in vitro anticancer activity studies for these N-((1-benzyl-1H-1,2,3-triazol-4-yl)methyl) arylamide analogues were carried out at the National Cancer Institute, USA.
# (§2) The N-((1-benzyl-1H-1,2,3-triazol-4-yl)methyl)arylamide analogues have been tested at NCI, USA, against sixty human tumor cell lines derived from nine cancer types (leukemia, non-small cell lung cancer, colon cancer, CNS cancer, melanoma cancer, ovarian cancer, renal cancer, prostate cancer and breast cancer). For these compounds results are expressed as growth inhibition (GI50) values as per NCI protocol.
# [2] = tested on: U251; assay: NCI sixty human tumor cell line screen, CNS panel; format: cell-based; conditions: U-251, NCI protocol
# Description: as §1, §2
# [3] = tested on: SF-539; assay: NCI sixty human tumor cell line screen, CNS panel; format: cell-based; conditions: SF-539, CNS, NCI protocol
# Description: as §1, §2
# [4] = tested on: SF-268; assay: NCI sixty human tumor cell line screen, CNS panel; format: cell-based; conditions: SF-268, CNS, NCI protocol
# Description: as §1, §2
# [5] = tested on: SF-295; assay: NCI sixty human tumor cell line screen, CNS panel; format: cell-based; conditions: SF-295, CNS, NCI protocol
# Description: as §1, §2
# [6] = tested on: SNB-19; assay: NCI sixty human tumor cell line screen, CNS panel; format: cell-based; conditions: SNB-19, CNS, NCI protocol
# Description: as §1, §2
# [7] = tested on: BT-549; assay: NCI sixty human tumor cell line screen, Breast panel; format: cell-based; conditions: BT-549, Breast, NCI protocol
# Description: as §1, §2
# [8] = tested on: MDA-MB-31/ATCC; assay: as above; format: cell-based; conditions: NCI protocol
# Description: as §1, §2
# [9] = tested on: MDA-MB-468; assay: as above; format: cell-based; conditions: MDA-MB-468, Breast, NCI protocol
# Description: as §1, §2
# [10] = tested on: T-47D; assay: as above; format: cell-based; conditions: T47D, NCI protocol
# Description: as §1, §2
# [11] = tested on: CCRF-CEM; assay: NCI sixty human tumor cell line screen, Leukemia panel; format: cell-based; conditions: NCI protocol
# Description: as §1, §2
# [12] = tested on: HOP-62; assay: NCI sixty human tumor cell line screen, Non-small-cell-lung panel; format: cell-based; conditions: HOP-62, Non-small-cell-lung, NCI protocol
# Description: as §1, §2
# [13] = tested on: NCI-H522; assay: as above; format: cell-based; conditions: NCI protocol
# Description: as §1, §2
# [14] = tested on: NCI-H226; assay: as above; format: cell-based; conditions: NCI protocol
# Description: as §1, §2
# [15] = tested on: EKVX; assay: as above; format: cell-based; conditions: NCI protocol
# Description: as §1, §2
# [16] = tested on: A549/ATCC; assay: as above; format: cell-based; conditions: NCI protocol
# Description: as §1, §2
# [17] = tested on: NCI-H460; assay: as above; format: cell-based; conditions: NCI protocol
# Description: as §1, §2
# [18] = tested on: M14; assay: NCI sixty human tumor cell line screen, Melanoma panel; format: cell-based; conditions: NCI protocol
# Description: as §1, §2
# [19] = tested on: SK-MEL-28; assay: as above; format: cell-based; conditions: SK-MEL-28, Melanoma, NCI protocol
# Description: as §1, §2
# [20] = tested on: SK-MEL-2; assay: as above; format: cell-based; conditions: SK-MEL-2, Melanoma, NCI protocol
# Description: as §1, §2
# [21] = tested on: MDA-MB-435; assay: as above; format: cell-based; conditions: MDA-MB-435, Melanoma, NCI protocol
# Description: as §1, §2
# [22] = tested on: LOX IMVI; assay: as above; format: cell-based; conditions: NCI protocol
# Description: as §1, §2
# [23] = tested on: SK-MEL-5; assay: as above; format: cell-based; conditions: SK-MEL-5, Melanoma, NCI protocol
# Description: as §1, §2
# [24] = tested on: UACC-62; assay: as above; format: cell-based; conditions: UACC-62, Melanoma, NCI protocol
# Description: as §1, §2
# [25] = tested on: DU-145; assay: NCI sixty human tumor cell line screen, Prostate panel; format: cell-based; conditions: DU-145, Prostate, NCI protocol
# Description: as §1, §2
# [26] = tested on: PC-3; assay: as above; format: cell-based; conditions: PC-3, Prostate, NCI protocol
# Description: as §1, §2
# [27] = tested on: TK-10; assay: NCI sixty human tumor cell line screen, Renal panel; format: cell-based; conditions: TK-10, Renal, NCI protocol
# Description: as §1, §2
# [28] = tested on: CAKI-1; assay: as above; format: cell-based; conditions: CAKI-1, Renal, NCI protocol
# Description: as §1, §2
# [29] = tested on: UO-31; assay: as above; format: cell-based; conditions: UO-31, Renal, NCI protocol
# Description: as §1, §2
# [30] = tested on: SN12C; assay: as above; format: cell-based; conditions: NCI protocol
# Description: as §1, §2
# [31] = tested on: RXF 393; assay: as above; format: cell-based; conditions: RXF 393, Renal, NCI protocol
# Description: as §1, §2
# [32] = tested on: A498; assay: as above; format: cell-based; conditions: NCI protocol
# Description: as §1, §2
# [33] = tested on: ACHN; assay: as above; format: cell-based; conditions: NCI protocol
# Description: as §1, §2
# [34] = tested on: HCT-116; assay: NCI sixty human tumor cell line screen, Colon panel; format: cell-based; conditions: HCT-116, Colon, NCI protocol
# Description: as §1, §2
# [35] = tested on: SW-620; assay: as above; format: cell-based; conditions: SW-620, Colon, NCI protocol
# Description: as §1, §2
# [36] = tested on: KM12; assay: as above; format: cell-based; conditions: NCI protocol
# Description: as §1, §2
# [37] = tested on: HT29; assay: as above; format: cell-based; conditions: HT-29, NCI protocol
# Description: as §1, §2
# [38] = tested on: COLO 205; assay: as above; format: cell-based; conditions: COLO 205, Colon, NCI protocol
# Description: as §1, §2
# [39] = tested on: SK-OV-3; assay: NCI sixty human tumor cell line screen, Ovarian panel; format: cell-based; conditions: SK-OV-3, Ovarian, NCI protocol
# Description: as §1, §2
# [40] = tested on: OVCAR-3; assay: as above; format: cell-based; conditions: OVCAR-3, Ovarian, NCI protocol
# Description: as §1, §2
# [41] = tested on: OVCAR-8; assay: as above; format: cell-based; conditions: OVCAR-8, Ovarian, NCI protocol
# Description: as §1, §2
# [42] = tested on: OVCAR-4; assay: as above; format: cell-based; conditions: OVCAR-4, Ovarian, NCI protocol
# Description: as §1, §2
# [43] = tested on: NCI/ADR-RES; assay: as above; format: cell-based; conditions: NCI protocol
# Description: as §1, §2
structure (smiles),measurement,setting,value
"COc1cc(Nc2ncccc2C(=O)NCc2cn(Cc3cccc(Oc4ccccc4)c3)nn2)cc(OC)c1 [Compound 1i, 2-(3,5-Dimethoxyphenylamino)-N-((1-(3-phenoxybenzyl)-1H-1,2,3-triazol-4-yl)methyl) nicotinamide]",melting point,,123 to 125 °C
same,GI50,[1],3.98 µM
same,GI50,[2],4.58 µM
same,GI50,[3],4.39 µM
same,GI50,[4],5.43 µM
same,GI50,[5],4.06 µM
same,GI50,[6],9.64 µM
same,GI50,[7],7.16 µM
same,GI50,[8],5.35 µM
same,GI50,[9],2.42 µM
same,GI50,[10],4.68 µM
same,GI50,[11],4.19 µM
same,GI50,[12],6.31 µM
same,GI50,[13],3.31 µM
same,GI50,[14],9.82 µM
same,GI50,[15],6.33 µM
same,GI50,[16],4.02 µM
same,GI50,[17],3.98 µM
same,GI50,[18],4.8 µM
same,GI50,[19],4.14 µM
same,GI50,[20],6.69 µM
same,GI50,[21],2.23 µM
same,GI50,[22],5.1 µM
same,GI50,[23],3.11 µM
same,GI50,[24],3.86 µM
same,GI50,[25],1.05 µM
same,GI50,[26],4.74 µM
same,GI50,[27],5.16 µM
same,GI50,[28],6.3 µM
same,GI50,[29],5.25 µM
same,GI50,[30],7.41 µM
same,GI50,[31],3.77 µM
same,GI50,[32],4.18 µM
same,GI50,[33],6.9 µM
same,GI50,[34],4.34 µM
same,GI50,[35],3.88 µM
same,GI50,[36],3.84 µM
same,GI50,[37],3.88 µM
same,GI50,[38],4.12 µM
same,GI50,[39],4.33 µM
same,GI50,[40],3.69 µM
same,GI50,[41],5.96 µM
same,GI50,[42],5.42 µM
same,GI50,[43],3.21 µM
"O=C(NCc1cn(Cc2cccc(Oc3ccccc3)c2)nn1)c1cccnc1NCc1ccc(Cl)cc1 [Compound 1k, 2-(4-Chlorobenzylamino)-N-((1-(3-phenoxybenzyl)-1H-1,2,3-triazol-4-yl)methyl) nicotinamide]",melting point,,209 to 211 °C
same,GI50,[1],2.02 µM
same,GI50,[2],2.66 µM
same,GI50,[3],2.24 µM
same,GI50,[4],4.82 µM
same,GI50,[5],2.8 µM
same,GI50,[6],3.91 µM
same,GI50,[7],2.72 µM
same,GI50,[8],2.29 µM
same,GI50,[9],3.44 µM
same,GI50,[10],3.2 µM
same,GI50,[11],3.05 µM
same,GI50,[12],5.69 µM
same,GI50,[13],2.18 µM
same,GI50,[14],3.66 µM
same,GI50,[15],3.65 µM
same,GI50,[16],3.21 µM
same,GI50,[17],2.85 µM
same,GI50,[18],2.49 µM
same,GI50,[19],2.95 µM
same,GI50,[20],4.44 µM
same,GI50,[21],2.33 µM
same,GI50,[22],3.9 µM
same,GI50,[23],2.53 µM
same,GI50,[24],2.08 µM
same,GI50,[25],4 µM
same,GI50,[26],2.96 µM
same,GI50,[27],3.7 µM
same,GI50,[28],4.36 µM
same,GI50,[29],3 µM
same,GI50,[30],3.44 µM
same,GI50,[31],2.19 µM
same,GI50,[32],2.12 µM
same,GI50,[33],4.03 µM
same,GI50,[34],3.18 µM
same,GI50,[35],4.04 µM
same,GI50,[36],3.62 µM
same,GI50,[37],2.96 µM
same,GI50,[38],2.18 µM
same,GI50,[39],3.32 µM
same,GI50,[40],3.48 µM
same,GI50,[41],3.63 µM
same,GI50,[42],3.37 µM
same,GI50,[43],2.86 µM
